Tests used:
LRAT = target: T1, LRAT (Bos taurus, UniProt Q9BGL2); assay: In vitro microsomal esterification of retinol, LRAT catalyzed (retinyl laurate formation); format: biochemical, bovine; settings: Table 2, 1 hour, 37° C.
T1 construct: microsomal fraction isolated from bovine retinal pigment epithelial cells; from tissue; host or cells: microsomes of bovine retinal pigment epithelial cells (method cited: Saari and Bredberg, J. Biol. Chem. 1988)
T1 sequence (Q9BGL2 1-230): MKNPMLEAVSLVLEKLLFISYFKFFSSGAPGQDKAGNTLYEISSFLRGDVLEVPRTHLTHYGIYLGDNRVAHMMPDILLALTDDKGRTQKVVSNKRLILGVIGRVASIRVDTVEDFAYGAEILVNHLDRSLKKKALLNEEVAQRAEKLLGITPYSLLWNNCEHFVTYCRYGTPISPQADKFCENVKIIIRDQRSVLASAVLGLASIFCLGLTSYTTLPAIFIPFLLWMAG
Procedure: (§2) A solution containing 0.1M sodium phosphate pH 7 buffer, 5 mM dithiothreitol, 2 mg/ml bovine serum albumin, 40 micromolar palmitoyl CoA, 40 micromolar dilauroyl phosphatidyl choline, 10 micromolar retinol and a test compound or solvent blank, was incubated for 1 hour at 37° C. with a microsomal fraction isolated from bovine retinal pigment epithelial cells. After incubation, the reaction was quenched by addition of an equal volume of ethanol, and the retinyl esters formed (retinyl palmitate from the ARAT catalyzed reaction, and retinyl laurate from the LRAT catalyzed reaction) were extracted with hexane.

ARAT = assay: In vitro microsomal esterification of retinol, ARAT catalyzed (retinyl palmitate formation); settings: Table 2, 1 hour, 37° C.
Procedure: as §2

[1] = test system: keratinocyte differentiation (TGase 1); assay: Transglutaminase (TGase 1) ELISA normalized to DNA, keratinocyte differentiation (Example 1B); format: cell-based, human; settings: […]10^-7 to […]10^-9 M; vs ethanol control
Procedure: Human keratinocytes, isolated from neonatal foreskin by trypsin treatment were grown in Dulbecco Modification Eagle (DME) Hams F12 (1:1) medium/10% fetal calf serum in the presence of irradiated 3T3 mouse fibroblasts for establishing dividing keratinocyte colonies. Cells were grown under the above condition until their second passage and kept frozen for future use. Frozen second passage keratinocytes were thawed and plated into the above medium and grown for five days before they were switched to a serum-free MCDB 153-based medium keratinocyte growth medium (KGM) from Clonetics Corporation, San Diego, Calif., containing 0.15 mM Ca, or keratinocyte serum-free media (KSFM) from GIBCO containing 0.09 mM Ca). On day 7, when the cells were 80-90% confluent, they were trypsinized and plated in the serum-free medium for the various experiments. […]
Keratinocytes (cultured as described above) were plated in 96 well plates at a density of 3,000 cells per well in 200 μl media. […] The absorbance of samples was read at 492 nm in the plate reader. […] TGase levels were determined by subtracting background from the readings from each treatment and determining mean±s.d. for the replicates exposed to both Ab.
(§1) The level of TGase-1 detected after treatment of the cells could be influenced by cell number, i.e., the greater the number of cells the greater the level of TGase-1 detected. […]

[2] = test system: keratinocyte differentiation (TGase 1); assay: Transglutaminase (TGase 1) ELISA, keratinocyte differentiation (Example 4); format: cell-based, human; settings: used alone; Table 4
Procedure: Human keratinocytes, isolated from neonatal foreskin by trypsin treatment were grown in Dulbecco Modification Eagle (DME) Hams F12 (1:1) medium/10% fetal calf serum in the presence of irradiated 3T3 mouse fibroblasts for establishing dividing keratinocyte colonies. Cells were grown under the above condition until their second passage and kept frozen for future use. Frozen second passage keratinocytes were thawed and plated into the above medium and grown for five days before they were switched to a serum-free MCDB 153-based medium keratinocyte growth medium (KGM) from Clonetics Corporation, San Diego, Calif., containing 0.15 mM Ca, or keratinocyte serum-free media (KSFM) from GIBCO containing 0.09 mM Ca). On day 7, when the cells were 80-90% confluent, they were trypsinized and plated in the serum-free medium for the various experiments.
During the process of terminal differentiation in the epidermis, a 15 nm thick layer of protein, known as the cornified envelope (CE) is formed on the inner surface of the cell periphery. The CE is composed of numerous distinct proteins which have been cross-linked together by the formation of N ^ε -(γ-glutamyl) lysine isodipeptide bonds catalyzed by the action of at least two different transglutaminases (TGases) expressed in the epidermis. TGase 1 is expressed in abundance in the differentiated layers of the epidermis, especially the granular layer, but is absent in the undifferentiated basal epidermis. […]
Keratinocytes (cultured as described above) were plated in 96 well plates at a density of 3,000 cells per well in […] of cell culture media. […] The absorbance of samples was read at 492 nm in the plate reader. […] Transglutaminase I levels were determined by subtracted background from the readings from each treatment and determining the mean s.d. for the replicates exposed to both antibodies.
as §1

[3] = test system: keratinocyte proliferation; assay: 3H-Thymidine incorporation / keratinocyte proliferation (Example 1A); format: cell-based, human; settings: […]10^-7 to […]10^-9 M; vs ethanol control and retinol treatments

SMILES	% INHIB. ARAT (ARAT; 100 μM) [%]	keratinocyte differentiation (in words) [2]	also measured
CCCCCCCC/C=C\CCCCCCCC(=O)NCCC[N+](C)(C)CC(=O)[O-] [oleamidopropyl betaine]	–	–	% INHIB. LRAT (LRAT; 100 μM): 0%
Nc1ncnc2nc[nH]c12 [adenine]	0	–	–
O=c1cc[nH]c(=O)[nH]1 [uracil]	0	–	–
Cc1ncc(C[n+]2csc(CCO)c2C)c(N)n1 [thiamine]	0	–	–
CCCCCCCCCCCC(=O)N(C)CC(=O)O [lauroyl sarcosine]	20	–	–
O=C1C(N(CO)C(=O)NCO)N(CO)C(=O)N1CO (stereo not shown) [diazolidinyl urea]	–	–	% INHIB. LRAT (LRAT; 0 μM as printed): 0%; % INHIB. ARAT (ARAT; 0 μM as printed): 0%
N[C@@H](Cc1c[nH]c2ccccc12)C(=O)O [tryptophan]	0	–	–
CC1=C(/C=C/C(C)=C/C=C/C(C)=C/CO)C(C)(C)CCC1 [ROH, retinol]	–	did not affect keratinocyte differentiation when used alone	keratinocyte differentiation / transglutaminase level (in words) [1]: The decrease in transglutaminase level was dose dependent
CC1=C(/C=C/C(C)=C/C=C/C(C)=C/C(=O)O)C(C)(C)CCC1 [RA, retinoic acid]	–	substantially decreased keratinocyte differentiation	keratinocyte proliferation (in words) [3]: significantly increased keratinocyte proliferation over both the ethanol control and each of the 2.5×10^-7 M, 2.5×10^-8 M and 2.5×10^-9 M retinol treatments and they did so in a dose dependant manner
CCCCCCCCCCCCCCCC(=O)OC/C=C(C)/C=C/C=C(C)/C=C/C1=C(C)CCCC1(C)C [RP, retinyl palmitate]	–	did not affect keratinocyte differentiation when used alone	–

— patent publication US5738858A, “Skin care compositions containing fatty hydroxyethyl imidazoline surfactants and retinol or retinyl ester” (priority 1996, dated 1998)
